Test results taken from patent publication US20210154190A1, “SHP2 INHIBITOR COMPOSITIONS AND METHODS FOR TREATING CANCER” (Revolution Medicines, Inc., priority 2018, published 2021).
Positions count from the first letter of the chain named. Where “and” joins values, the source holds several entries; their conditions need not be identical. Equal entries are not always repeated. Where two headings read alike, the source gives them in different places.

Tests used:
Format in all cases: biochemical
human SHP2-FL E76K = biological target: T1, human SHP2-FL E76K (Homo sapiens, UniProt Q06124, E76K); assay: SHP2 allosteric inhibition assay (DiFMUP), E76K; details: for IC50: SHP2 E76K
T1 sequence (Q06124 1-593 E76K): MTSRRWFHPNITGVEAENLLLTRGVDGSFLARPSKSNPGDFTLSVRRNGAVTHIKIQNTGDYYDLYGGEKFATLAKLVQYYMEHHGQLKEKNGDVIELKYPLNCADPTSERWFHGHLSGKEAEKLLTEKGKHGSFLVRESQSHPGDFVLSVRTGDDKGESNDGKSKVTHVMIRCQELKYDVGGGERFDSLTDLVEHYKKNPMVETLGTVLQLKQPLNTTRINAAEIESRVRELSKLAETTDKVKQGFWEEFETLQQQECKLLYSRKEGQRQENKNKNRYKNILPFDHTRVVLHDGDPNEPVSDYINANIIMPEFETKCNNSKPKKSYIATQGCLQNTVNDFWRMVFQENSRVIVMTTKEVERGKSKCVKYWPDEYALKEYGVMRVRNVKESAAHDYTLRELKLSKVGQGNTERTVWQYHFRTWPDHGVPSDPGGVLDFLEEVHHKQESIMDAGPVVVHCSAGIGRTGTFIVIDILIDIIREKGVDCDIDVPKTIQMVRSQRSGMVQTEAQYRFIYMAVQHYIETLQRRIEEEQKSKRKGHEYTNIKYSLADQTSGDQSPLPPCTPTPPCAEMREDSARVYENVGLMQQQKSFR
Text: (§1) Full-length SHP2 is allosterically activated through binding of bis-tyrosyl-phorphorylated peptides to its Src Homology 2 (SH2) domains. The latter activation step leads to the release of the auto-inhibitory interface of SHP2, which in turn renders the SHP2 protein tyrosine phosphatase (PTP) active and available for substrate recognition and reaction catalysis. The catalytic activity of SHP2 was monitored using the surrogate substrate DiFMUP in a prompt fluorescence assay format.
(§2) Diluted inhibitor (5 μL) was mixed with activated enzyme (25 μl) and incubated for 30 minutes at room temperature. […] 50 μl stop solution (0.1 mM sodium pervanadate) was added to each well, the plate was shaken briefly to mix, and read in endpoint mode on a SpectraMax M5 plate reader (Molecular Devices) using excitation and emission wavelengths of 340 nm and 450 nm. Data was imported into GraphPad Prism. Plots of fluorescence intensity vs. log Molar [compound] were created and modeled with a 3-parameter sigmoidal concentration response equation in order to estimate IC50.
(§3) Reactions were then allowed to proceed for 30 minutes and stopped by the addition of a phosphatase inhibitor, sodium pervanadate. De-phosphorylation of DiFMUP results in production of a fluorescent product. Product fluorescence was determined and plotted as a function of compound concentration in order to determine the IC50 for each compound on each mutant using a four parameter sigmoidal dose response function in Prism (GraphPad).
(§4) NsCs mimics the role of the cytosolic domain of a protein tyrosine kinase in this model system.

human SHP2-FL F285S = biological target: T2, human SHP2-FL F285S (Homo sapiens, UniProt Q06124, F285S); assay: SHP2 allosteric inhibition assay (DiFMUP), F285S
T2 sequence (Q06124 1-593 F285S): T1 sequence (Q06124 1-593 E76K) with K76E, F285S
Procedure: as §1
as §2, with “Diluted inhibitor (5 μL) was mixed with activated enzyme (25 μl) and incubated for 30 minutes at room temperature.” left out
as §3, §4

human SHP2-FL wild type = biological target: T3, human SHP2-FL wild type (Homo sapiens, UniProt Q06124); assay: SHP2 allosteric inhibition assay (DiFMUP), wild type
T3 sequence (Q06124 1-593): T1 sequence (Q06124 1-593 E76K) with K76E
Procedure: as §1
as §2, with “Diluted inhibitor (5 μL) was mixed with activated enzyme (25 μl) and incubated for 30 minutes at room temperature.” left out
as §3, §4

SMILES	IC50 (human SHP2-FL E76K; 0.5 μM NsCs peptide (Activated), read-out: IC50)	IC50 (human SHP2-FL E76K; No Peptide Control (Non-Activated), read-out: pIC50 (converted))	IC50 (human SHP2-FL F285S; IC50 (nM), SHP2 F285S 0.5 μM NsCs peptide (Activated), human SHP2-FL F285S, 0.5 μM NsCs peptide (activated))	IC50 (human SHP2-FL F285S; human SHP2-FL F285S alone, no peptide (non-activated), read-out: IC50 (nM), SHP2 F285S No Peptide Control (Non-Activated))	IC50 (human SHP2-FL F285S; human SHP2-FL F285S alone, no peptide (non-activated), read-out: pIC50, SHP2 F285S No Peptide Control (Non-Activated) (converted))	IC50 (human SHP2-FL F285S; pIC50, SHP2 F285S 0.5 μM NsCs peptide (Activated), human SHP2-FL F285S, 0.5 μM NsCs peptide (activated))	IC50 (human SHP2-FL wild type; Wild-type SHP2, 0.5 μM NsCs peptide (Activated), read-out: IC50)	IC50 (human SHP2-FL wild type; Wild-type SHP2, 0.5 μM NsCs peptide (Activated), read-out: pIC50 (converted))	IC50 (human SHP2-FL wild type; Wild-type SHP2, No Peptide Control (Non-Activated), read-out: IC50)	IC50 (human SHP2-FL wild type; Wild-type SHP2, No Peptide Control (Non-Activated), read-out: pIC50 (converted))	Biochemical sensitivity (human SHP2-FL E76K; Variant E76K)	Biochemical sensitivity (human SHP2-FL F285S; Variant F285S)	Biochemical sensitivity (human SHP2-FL wild type; Variant WT)
Nc1nc(N2CCC3(CCC[C@H]3N)CC2)cnc1Sc1ccnc(Cl)c1Cl [Compound 1]	> 10000 nM and 13100 nM and 10400 nM	53.7 nM and 58.9 nM and 50.1 nM	3.76 nM and 9.08 nM and 8.38 nM and 15.1 nM	1.57 nM and 1.55 nM and 1.04 nM and 1.19 nM	1.55 nM and 1.05 nM and 1.2 nM	3.72 nM and 9.12 nM and 8.32 nM and 15.1 nM	2.62 nM and 2.69 nM and 2.12 nM and 2.37 nM	2.63 nM and 2.69 nM and 2.14 nM and 2.34 nM	2.01 nM and 2.43 nM and 1.36 nM and 2.24 nM	2 nM and 2.45 nM and 1.35 nM and 2.24 nM	–	–	–
Cc1nc(N2CCC3(CC2)CO[C@@H](C)[C@H]3N)c(CO)nc1-c1cccc(Cl)c1Cl [Compound B]	–	–	–	–	–	–	–	–	–	–	no (Sensitive if IC50 < 2000 nM)	yes (Sensitive if IC50 < 2000 nM)	yes (Sensitive if IC50 < 2000 nM)
